Assays:
[1] = (−)-Epicatechin isomerisation test (heating of an epicatechin test solution, HPLC); format: physicochemical; conditions: for Epicatechin / Epicatechin % remain: 0.688 mg/ml epicatechin solution, nitrogen-flushed sealed vial; for Other % of start / Other: calculated from 100 − (epicatechin + catechin); for Other: unit assumed; for Catechin / Catechin % of start: formed from 0.688 mg/ml epicatechin
Description: In order to test the possibility that epicatechin was isomerising to catechin at higher temperatures, a test solution of 0.688 mg/ml epicatechin was produced and treated as follows: 950 μl of epicatechin was transferred to an auto sampler vial, which was flushed with nitrogen and sealed. The vial was then placed in an oven at a given temperature, for a set time period. The vial was then cooled, the seal removed and 50 μl of internal standard added before analysis. Tests were carried out at 50, 75, 100 and 125° C. for 15 and 30 minutes. Tests were not carried out at 150° C. as the vials are not capable of withstanding the pressure that would be generated.

[2] = Comparison of ethanol extraction with methanol (solubility of epicatechin); format: physicochemical; conditions: ethanol compared with methanol; implied by extraction data of Table 11
Description: A comparative extract using 1 g of apple powder and 10 ml methanol gave a figure of 4663 mg/Kg. In order to test if the low recovery figure above was due to low solubility of epicatechin in ethanol a series of tests were performed using 10, 20 and 30:1 w/w.

epicatechin
Epicatechin ([1]; 50° C. 15 min): 0.643 mg/mL
Epicatechin % remain ([1]; 50° C. 15 min): 93.53%
Epicatechin ([1]; 50° C. 30 min): 0.601 mg/mL
Epicatechin % remain ([1]; 50° C. 30 min): 87.40%
Epicatechin ([1]; 75° C. 15 min): 0.550 mg/mL
Epicatechin % remain ([1]; 75° C. 15 min): 79.92%
Epicatechin ([1]; 75° C. 30 min): 0.441 mg/mL
Epicatechin % remain ([1]; 75° C. 30 min): 64.07%
Epicatechin ([1]; 100° C. 15 min): 0.254 mg/mL
Epicatechin % remain ([1]; 100° C. 15 min): 36.97%
Epicatechin ([1]; 100° C. 30 min): 0.164 mg/mL
Epicatechin % remain ([1]; 100° C. 30 min): 23.88%
Epicatechin ([1]; 125° C. 15 min): 0.156 mg/mL
Epicatechin % remain ([1]; 125° C. 15 min): 22.71%
Epicatechin ([1]; 125° C. 30 min): 0.139 mg/mL
Epicatechin % remain ([1]; 125° C. 30 min): 20.27%
Other % of start ([1]; 50° C. 15 min): 5.40%
Other ([1]; 50° C. 15 min): 0.037 mg/mL
Other % of start ([1]; 50° C. 30 min): 10.79%
Other ([1]; 50° C. 30 min): 0.074 mg/mL
Other % of start ([1]; 75° C. 15 min): 10.59%
Other ([1]; 75° C. 15 min): 0.073 mg/mL
Other % of start ([1]; 75° C. 30 min): 19.65%
Other ([1]; 75° C. 30 min): 0.135 mg/mL
Other % of start ([1]; 100° C. 15 min): 16.36%
Other ([1]; 100° C. 15 min): 0.113 mg/mL
Other % of start ([1]; 100° C. 30 min): 26.07%
Other ([1]; 100° C. 30 min): 0.179 mg/mL
Other % of start ([1]; 125° C. 15 min): 27.94%
Other ([1]; 125° C. 15 min): 0.192 mg/mL
Other % of start ([1]; 125° C. 30 min): 36.13%
Other ([1]; 125° C. 30 min): 0.249 mg/mL
Catechin ([1]; 50° C. 15 min): 0.007 mg/mL
Catechin % of start ([1]; 50° C. 15 min): 1.07%
Catechin ([1]; 50° C. 30 min): 0.012 mg/mL
Catechin % of start ([1]; 50° C. 30 min): 1.81%
Catechin ([1]; 75° C. 15 min): 0.065 mg/mL
Catechin % of start ([1]; 75° C. 15 min): 9.49%
Catechin ([1]; 75° C. 30 min): 0.112 mg/mL
Catechin % of start ([1]; 75° C. 30 min): 16.28%
Catechin ([1]; 100° C. 15 min): 0.321 mg/mL
Catechin % of start ([1]; 100° C. 15 min): 46.68%
Catechin ([1]; 100° C. 30 min): 0.344 mg/mL
Catechin % of start ([1]; 100° C. 30 min): 50.05%
Catechin ([1]; 125° C. 15 min): 0.340 mg/mL
Catechin % of start ([1]; 125° C. 15 min): 49.36%
Catechin ([1]; 125° C. 30 min): 0.300 mg/mL
Catechin % of start ([1]; 125° C. 30 min): 43.60%
isomerisation of (−)-epicatechin ([1]; temperatures above 100° C.): rapid isomerisation
solubility of epicatechin [2]: lower solubility in ethanol than in methanol
